Test results taken from ChEMBL document CHEMBL2157933, “The synthesis and antituberculosis activity of 5'-nor carbocyclic uracil derivatives” (Bioorg Med Chem, 2012).
Values after ≈ are worked out from the molar mass of the structure shown.

Assays:
Assay type in all cases: functional
[1] = test system: Mycobacterium tuberculosis; assay: Antibacterial activity against multidrug-resistant Mycobacterium tuberculosis MS-115 under anaerobic condition assessed as growth inhibition at 0.1 ug/ml by BACTEC method; conditions: read-out: GI
[2] = test system: Mycobacterium tuberculosis; assay: Antibacterial activity against multidrug-resistant Mycobacterium tuberculosis MS-115 under anaerobic condition by BACTEC method
[3] = test system: Mycobacterium tuberculosis; assay: Antibacterial activity against multidrug-resistant Mycobacterium tuberculosis MS-115 under anaerobic condition assessed as growth inhibition at 20 ug/ml by BACTEC method; conditions: read-out: GI
[4] = test system: Mycobacterium tuberculosis; assay: Antibacterial activity against multidrug-resistant Mycobacterium tuberculosis MS-115 under anaerobic condition assessed as growth inhibition at 10 ug/ml by BACTEC method; conditions: read-out: GI
[5] = test system: Mycobacterium tuberculosis; assay: Antibacterial activity against multidrug-resistant Mycobacterium tuberculosis MS-115 under anaerobic condition assessed as growth inhibition at 1 ug/ml by BACTEC method; conditions: read-out: GI
[6] = test system: Mycobacterium tuberculosis; assay: Antibacterial activity against multidrug-resistant Mycobacterium tuberculosis MS-115 under anaerobic condition assessed as growth inhibition at 5 ug/ml by BACTEC method; conditions: read-out: GI
[7] = test system: Mycobacterium tuberculosis; assay: Antibacterial activity against multidrug-resistant Mycobacterium tuberculosis MS-115 under anaerobic condition assessed as growth inhibition at 2 ug/ml by BACTEC method; conditions: read-out: GI
[8] = test system: Mycobacterium tuberculosis; assay: Antibacterial activity against multidrug-resistant Mycobacterium tuberculosis MS-115 under anaerobic condition assessed as growth inhibition at 10 to 20 ug/ml by BACTEC method
[9] = test system: Mycobacterium tuberculosis; assay: Antibacterial activity against multidrug-resistant Mycobacterium tuberculosis MS-115 under anaerobic condition assessed as growth inhibition at 100 ug/ml by BACTEC method; conditions: read-out: GI

NNC(=O)c1ccncc1 [ISONIAZID]
inhibition of growth at 0.1 µg/mL [1]: 0%

CCCCCCCCCCCCC#Cc1cn(C2C=CC(O)C2)c(=O)[nH]c1=O (single isomer, unassigned; (-))
MIC99 [2]: 10 µg/mL (≈ 25.9 µM)
inhibition of growth at 20 µg/mL [3]: 100%
inhibition of growth at 10 µg/mL [4]: 99%

CO[C@H]1/C=C/O[C@@]2(C)Oc3c(C)c(O)c4c(O)c(c(/C=N/N5CCN(C)CC5)c(O)c4c3C2=O)NC(=O)/C(C)=C\C=C\[C@H](C)[C@H](O)[C@@H](C)[C@@H](O)[C@@H](C)[C@H](OC(C)=O)[C@@H]1C [RIFAMPIN]
inhibition of growth at 1 µg/mL [5]: 0%

CC[C@@H](CO)NCCN[C@@H](CC)CO [ETHAMBUTOL]
inhibition of growth at 5 µg/mL [6]: 0%

CC1COc2c(N3CCN(C)CC3)c(F)cc3c(=O)c(C(=O)O)cn1c23 (stereo unspecified) [OFLOXACIN]
MIC99 [2]: 2 µg/mL (≈ 5.53 µM)
inhibition of growth at 2 µg/mL [7]: 100%

CCCCCCCCCCCCC#Cc1cn(C2C=CC(O)C2)c(=O)[nH]c1=O (racemic)
growth inhibition (GI) [8]: 100%

NC(=O)c1cnccn1 [PYRAZINAMIDE]
inhibition of growth at 100 µg/mL [9]: 0%

CN[C@@H]1[C@H](O[C@H]2[C@H](O[C@H]3[C@H](O)[C@@H](O)[C@H](N=C(N)N)[C@@H](O)[C@@H]3N=C(N)N)O[C@@H](C)[C@]2(O)C=O)O[C@@H](CO)[C@H](O)[C@H]1O [STREPTOMYCIN]
inhibition of growth at 0.1 µg/mL [1]: 0%
